The results in this text go back to patent US9108903B2, “Amides as modulators of sodium channels” (VERTEX PHARMACEUTICALS INCORPORATED, priority 2013, dated 2015).

The target in this assay is human Nav1.8 (Homo sapiens (Human), UniProt Q9Y5Y9). Nature of the assay: E-VIPR optical membrane potential assay with electrical stimulation. Type of assay: cell-based. To be noted: HEK cells expressing human Nav1.8. The text has this:
Assays for Detecting and Measuring NaV Inhibition Properties of Compounds E-VIPR Optical Membrane Potential Assay Method with Electrical Stimulation
Sodium channels are voltage-dependent proteins that can be activated by inducing membrane voltage changes by applying electric fields. The electrical stimulation instrument and methods of use are described in Ion Channel Assay Methods PCT/US01/21652, herein incorporated by reference and are referred to as E-VIPR. The instrument comprises a microtiter plate handler, an optical system for exciting the coumarin dye while simultaneously recording the coumarin and oxonol emissions, a waveform generator, a current- or voltage-controlled amplifier, and a device for inserting electrodes in well. Under integrated computer control, this instrument passes user-programmed electrical stimulus protocols to cells within the wells of the microtiter plate.
24 hours before the assay on E-VIPR, HEK cells expressing human Nav1.8 were seeded in 384-well poly-lysine coated plates at 15,000-20,000 cells per well. HEK cells were grown in media (exact composition is specific to each cell type and NaV subtype) supplemented with 10% FBS (Fetal Bovine Serum, qualified; GibcoBRL #16140-071) and 1% Pen-Strep (Penicillin-Streptomycin; GibcoBRL #15140-122). Cells were grown in vented cap flasks, in 90% humidity and 5% CO2.
100 mg/mL Pluronic F-127 (Sigma #P2443), in dry DMSO
Compound Plates: 384-well round bottom plate, e.g. Corning 384-well Polypropylene Round Bottom #3656
Cell Plates: 384-well tissue culture treated plate, e.g. Greiner #781091-1B
Bath1 buffer: Glucose 10 mM (1.8 g/L), Magnesium Chloride (Anhydrous), 1 mM (0.095 g/L), Calcium Chloride, 2 mM (0.222 g/L), HEPES 10 mM (2.38 g/L), Potassium Chloride, 4.5 mM (0.335 g/L), Sodium Chloride 160 mM (9.35 g/L).
Hexyl Dye Solution: Bath1 Buffer+0.5% β-cyclodextrin (make this prior to use, Sigma #C4767), 8 μM CC2-DMPE+2.5 μM DiSBAC6(3). To make the solution added volume of 10% Pluronic F127 stock equal to volumes of CC2-DMPE+DiSBAC6(3). The order of preparation was first mix Pluronic and CC2-DMPE, then added DiSBAC6(3) while vortexing, then added Bath1+β-Cyclodextrin.
1) Pre-spotted compounds (in neat DMSO) into compound plates. Vehicle control (neat DMSO), the positive control (20 mM DMSO stock tetracaine, 125 μM final in assay) and test compounds were added to each well at 160× desired final concentration in neat DMSO. Final compound plate volume was 80 μL (80-fold intermediate dilution from 1 μL DMSO spot; 160-fold final dilution after transfer to cell plate). Final DMSO concentration for all wells in assay was 0.625%.
2) Prepared Hexyl Dye Solution.
3) Prepared cell plates. On the day of the assay, medium was aspirated and cells were washed three times with 100 μL of Bath1 Solution, maintaining 25 μL residual volume in each well.
4) Dispensed 25 μL per well of Hexyl Dye Solution into cell plates. Incubated for 20-35 minutes at room temp or ambient conditions.
5) Dispensed 80 μL per well of Bath1 into compound plates. Acid Yellow-17 (1 mM) was added and Potassium Chloride was altered from 4.5 to 20 mM depending on the NaV subtype and assay sensitivity.
6) Washed cell plates three times with 100 μL per well of Bath1, leaving 25 μL of residual volume. Then transfered 25 uL per well from Compound Plates to Cell Plates. Incubated for 20-35 minutes at room temp/ambient condition.
7) Read Plate on E-VIPR. Used the current-controlled amplifier to deliver stimulation wave pulses for 10 seconds and a scan rate of 200 Hz. A pre-stimulus recording was performed for 0.5 seconds to obtain the un-stimulated intensities baseline. The stimulatory waveform was followed by 0.5 seconds of post-stimulation recording to examine the relaxation to the resting state.
Data was analyzed and reported as normalized ratios of emission intensities measured in the 460 nm and 580 nm channels. The response as a function of time was reported as the ratios obtained using the following formula: […]

Chain of human Nav1.8 (Q9Y5Y9 whole entry): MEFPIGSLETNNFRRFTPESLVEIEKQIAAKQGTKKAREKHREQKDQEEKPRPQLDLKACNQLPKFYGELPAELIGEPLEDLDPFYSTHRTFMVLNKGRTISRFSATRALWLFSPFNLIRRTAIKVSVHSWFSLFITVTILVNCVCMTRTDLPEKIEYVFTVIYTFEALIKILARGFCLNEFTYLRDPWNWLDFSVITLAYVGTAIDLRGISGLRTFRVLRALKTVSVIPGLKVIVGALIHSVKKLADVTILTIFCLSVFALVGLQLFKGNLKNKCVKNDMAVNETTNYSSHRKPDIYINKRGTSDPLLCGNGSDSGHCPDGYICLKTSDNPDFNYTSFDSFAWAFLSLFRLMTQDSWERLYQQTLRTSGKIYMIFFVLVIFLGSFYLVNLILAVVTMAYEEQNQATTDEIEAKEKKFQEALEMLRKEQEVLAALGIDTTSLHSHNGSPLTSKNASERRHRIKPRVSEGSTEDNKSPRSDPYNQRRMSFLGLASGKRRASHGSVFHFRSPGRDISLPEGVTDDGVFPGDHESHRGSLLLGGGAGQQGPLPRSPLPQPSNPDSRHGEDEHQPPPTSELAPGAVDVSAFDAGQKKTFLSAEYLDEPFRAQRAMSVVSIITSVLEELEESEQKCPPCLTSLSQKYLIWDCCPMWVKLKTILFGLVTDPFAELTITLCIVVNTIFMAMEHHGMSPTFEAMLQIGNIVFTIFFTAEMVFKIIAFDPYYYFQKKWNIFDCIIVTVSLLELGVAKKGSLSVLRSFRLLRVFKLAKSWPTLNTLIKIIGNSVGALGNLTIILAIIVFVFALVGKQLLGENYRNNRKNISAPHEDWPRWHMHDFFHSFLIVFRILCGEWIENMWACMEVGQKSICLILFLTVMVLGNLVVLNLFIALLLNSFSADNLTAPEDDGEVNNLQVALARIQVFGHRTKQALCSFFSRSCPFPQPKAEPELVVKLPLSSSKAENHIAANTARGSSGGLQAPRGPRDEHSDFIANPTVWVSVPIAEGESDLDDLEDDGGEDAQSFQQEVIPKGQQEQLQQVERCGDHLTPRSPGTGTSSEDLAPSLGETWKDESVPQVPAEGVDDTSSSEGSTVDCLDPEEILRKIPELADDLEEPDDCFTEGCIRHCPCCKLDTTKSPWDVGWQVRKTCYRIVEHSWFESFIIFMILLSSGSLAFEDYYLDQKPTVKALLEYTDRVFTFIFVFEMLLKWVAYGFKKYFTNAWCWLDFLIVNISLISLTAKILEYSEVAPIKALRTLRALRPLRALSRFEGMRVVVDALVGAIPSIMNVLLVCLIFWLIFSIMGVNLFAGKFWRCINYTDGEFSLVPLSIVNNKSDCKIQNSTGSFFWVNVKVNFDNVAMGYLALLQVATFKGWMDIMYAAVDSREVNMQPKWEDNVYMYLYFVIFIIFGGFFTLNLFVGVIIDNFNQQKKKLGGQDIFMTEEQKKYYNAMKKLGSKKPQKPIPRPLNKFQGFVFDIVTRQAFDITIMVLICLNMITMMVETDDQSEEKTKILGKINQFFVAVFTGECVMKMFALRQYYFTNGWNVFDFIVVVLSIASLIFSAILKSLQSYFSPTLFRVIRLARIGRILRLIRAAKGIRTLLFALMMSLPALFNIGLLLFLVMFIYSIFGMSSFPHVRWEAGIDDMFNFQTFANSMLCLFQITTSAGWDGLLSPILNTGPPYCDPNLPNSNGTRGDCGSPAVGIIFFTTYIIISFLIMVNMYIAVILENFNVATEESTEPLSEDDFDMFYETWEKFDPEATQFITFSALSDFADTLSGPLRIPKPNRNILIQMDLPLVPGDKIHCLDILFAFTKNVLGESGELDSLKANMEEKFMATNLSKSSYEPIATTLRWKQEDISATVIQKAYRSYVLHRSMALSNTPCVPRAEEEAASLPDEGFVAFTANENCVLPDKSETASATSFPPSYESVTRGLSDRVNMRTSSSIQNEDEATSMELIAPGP

Compound `O=C(O)c1ccc(NC(=O)c2cc(Cl)c(Cl)cc2Oc2ccccc2)cn1` [Compound 33, 5-(4,5-dichloro-2-phenoxybenzamido)picolinic acid] yielded a half-maximal inhibitory concentration (IC50) of 190 nM. On to `COc1ccc(Oc2cc(Cl)c(Cl)cc2C(=O)Nc2ccc(C(=O)O)nc2)c(F)c1` [Compound 34, 5-(4,5-dichloro-2-(2-fluoro-4-methoxyphenoxy)benzamido)picolinic acid], for which 52 nM corresponded to half-maximal inhibition (IC50). With `O=C(O)c1ccc(NC(=O)c2cc(Cl)c(Cl)cc2Oc2ccc(OCC(F)(F)F)cc2)cn1` [Compound 35, 5-(4,5-dichloro-2-(4-(2,2,2-trifluoroethoxy)phenoxy)benzamido)picolinic acid], it took 50 nM to reach half-maximal inhibition (IC50). For the compound `COc1cc(Cl)ccc1Oc1cc(Cl)c(Cl)cc1C(=O)Nc1ccc(C(=O)O)nc1` [Compound 36, 5-(4,5-dichloro-2-(4-chloro-2-methoxyphenoxy)benzamido)picolinic acid], the half-maximal inhibitory concentration (IC50) turned out to be 39 nM. Compound `O=C(O)c1ccc(NC(=O)c2cc(Cl)c(Cl)cc2Oc2ccccc2OC(F)F)cn1` [Compound 37, 5-(4,5-dichloro-2-(2-(difluoromethoxy)phenoxy)benzamido)picolinic acid] showed an IC50 of 46 nM. `Cc1cc(Cl)ccc1Oc1cc(Cl)c(Cl)cc1C(=O)Nc1ccc(C(=O)O)nc1` [Compound 38, 5-(4,5-dichloro-2-(4-chloro-2-methylphenoxy)benzamido)picolinic acid]: the half-maximal inhibitory concentration (IC50) worked out at 74 nM.

Turning to `COc1ccc(Oc2cc(Cl)c(Cl)cc2C(=O)Nc2ccc(C(=O)O)nc2)c(OC)c1` [Compound 39, 5-(4,5-dichloro-2-(2,4-dimethoxyphenoxy)benzamido)picolinic acid], inhibition was half-maximal at 15 nM (IC50). This IC50 is about 4.9-fold lower than that of the compound before. Under `COc1ccc(Oc2cc(Cl)c(Cl)cc2C(=O)Nc2ccc(C(=O)O)nc2)cc1F` [Compound 40, 5-(4,5-dichloro-2-(3-fluoro-4-methoxyphenoxy)benzamido)picolinic acid] stands 34 nM; under `O=C(O)c1ccc(NC(=O)c2cc(Cl)c(Cl)cc2Oc2ccc(F)cc2Cl)cn1` [Compound 41, 5-(4,5-dichloro-2-(2-chloro-4-fluorophenoxy)benzamido)picolinic acid], 12 nM; under `O=C(O)c1ccc(NC(=O)c2cc(Cl)c(Cl)cc2Oc2ccc(F)cc2F)cn1` [Compound 42, 5-(4,5-dichloro-2-(2,4-difluorophenoxy)benzamido)picolinic acid], 31 nM.

`COc1ccc(Oc2cc(Cl)c(Cl)cc2C(=O)Nc2ccc(C(=O)O)nc2)c(Cl)c1` [Compound 43, 5-(4,5-dichloro-2-(2-chloro-4-methoxyphenoxy)benzamido)picolinic acid] registered a 50% inhibitory concentration (IC50) of 65 nM. Compound `O=C(O)c1ccc(NC(=O)c2cc(Cl)c(Cl)cc2Oc2ccc(OC(F)(F)F)cc2)cn1` [Compound 44, 5-(4,5-dichloro-2-(4-(trifluoromethoxy)phenoxy)benzamido)picolinic acid] returned an IC50 of 20 nM.

`COc1ccccc1Oc1cc(C(F)(F)F)cc(C(F)(F)F)c1C(=O)Nc1ccc(C(=O)O)nc1` [Compound 45, 5-(2-(2-methoxyphenoxy)-4,6-bis(trifluoromethyl)benzamido)picolinic acid] displayed a half-maximal inhibitory concentration (IC50) of 64 nM. The compound `COc1ccc(Oc2cc(C(F)(F)F)cc(C(F)(F)F)c2C(=O)Nc2ccc(C(=O)O)nc2)cc1` [Compound 46, 5-(2-(4-methoxyphenoxy)-4,6-bis(trifluoromethyl)benzamido)picolinic acid] registered an IC50 of 66 nM. Consider `Cc1cc(F)ccc1Oc1cc(C(F)(F)F)cc(C(F)(F)F)c1C(=O)Nc1ccc(C(=O)O)nc1` [Compound 47, 5-(2-(4-fluoro-2-methylphenoxy)-4,6-bis(trifluoromethyl)benzamido)picolinic acid], for which it took 42 nM to reach half-maximal inhibition (IC50).

Compound `COc1cc(F)ccc1Oc1cc(C(F)(F)F)cc(C(F)(F)F)c1C(=O)Nc1ccc(C(=O)O)nc1` [Compound 48, 5-(2-(4-fluoro-2-methoxyphenoxy)-4,6-bis(trifluoromethyl)benzamido)picolinic acid] returned an IC50 of 14 nM. This IC50 lies about 3-fold lower than the previous one.

As to `COc1ccc(Oc2cc(C(F)(F)F)cc(C(F)(F)F)c2C(=O)Nc2ccc(C(=O)O)nc2)c(OC)c1` [Compound 49, 5-(2-(2,4-dimethoxyphenoxy)-4,6-bis(trifluoromethyl)benzamido)picolinic acid], 6 nM corresponded to half-maximal inhibition (IC50). Under `O=C(O)c1ccc(NC(=O)c2c(Oc3ccc(F)cc3)cc(C(F)(F)F)cc2C(F)(F)F)cn1` [Compound 50, 5-(2-(4-fluorophenoxy)-4,6-bis(trifluoromethyl)benzamido)picolinic acid] stands 130 nM; under `COc1cc(F)ccc1Oc1cc(Cl)c(Cl)cc1C(=O)Nc1ccc(C(=O)O)nc1` [Compound 51, 5-(4,5-dichloro-2-(4-fluoro-2-methoxyphenoxy)benzamido)picolinic acid], 9 nM.

The compound `COc1cc(F)ccc1Oc1cc(C(C)(C)C)ccc1C(=O)Nc1ccc(C(=O)O)nc1` [Compound 52, 5-(4-(tert-butyl)-2-(4-fluoro-2-methoxyphenoxy)benzamido)picolinic acid] had a half-maximal inhibitory concentration (IC50) of 31 nM. `Cc1cc(F)ccc1Oc1cc(C(C)(C)C)ccc1C(=O)Nc1ccc(C(=O)O)nc1` [Compound 53, 5-(4-(tert-butyl)-2-(4-fluoro-2-methylphenoxy)benzamido)picolinic acid] registered an IC50 of 46 nM.

`CC(C)(C)c1ccc(C(=O)Nc2ccc(C(=O)O)nc2)c(Oc2ccc(F)cc2)c1` [Compound 54, 5-(4-(tert-butyl)-2-(4-fluorophenoxy)benzamido)picolinic acid] gave a half-maximal inhibitory concentration (IC50) of 180 nM. Against the preceding compound, the IC50 is about 3.9-fold higher. In turn, `O=C(O)c1ccc(NC(=O)c2ccccc2Oc2ccc(F)cc2)cn1` [Compound 55, 5-(2-(4-fluorophenoxy)benzamido)picolinic acid] had a half-maximal inhibitory concentration (IC50) of 4350 nM. Against the preceding compound, the IC50 is about 24-fold higher. Under `O=C(O)c1ccc(NC(=O)c2ccc(C(F)(F)F)cc2Oc2ccc(F)cc2)cn1` [Compound 56, 5-(2-(4-fluorophenoxy)-4-(trifluoromethyl)benzamido)picolinic acid] stands 250 nM; under `COc1cc(F)ccc1Oc1ccc(C(F)(F)F)cc1C(=O)Nc1ccc(C(=O)O)nc1` [Compound 57, 5-(2-(4-fluoro-2-methoxyphenoxy)-5-(trifluoromethyl)benzamido)picolinic acid], 96 nM. The figure for `O=C(O)c1ccc(NC(=O)c2cc(C(F)(F)F)ccc2Oc2ccc(F)cc2Cl)cn1` [Compound 58, 5-(2-(2-chloro-4-fluorophenoxy)-5-(trifluoromethyl)benzamido)picolinic acid] is 80 nM; for `COc1ccc(F)cc1Oc1ccc(C(F)(F)F)cc1C(=O)Nc1ccc(C(=O)O)nc1` [Compound 59, 5-(2-(5-fluoro-2-methoxyphenoxy)-5-(trifluoromethyl)benzamido)picolinic acid] it is 740 nM; for `O=C(O)c1ccc(NC(=O)c2cc(C(F)(F)F)ccc2Oc2ccccc2OC(F)F)cn1` [Compound 60, 5-(2-(2-(difluoromethoxy)phenoxy)-5-(trifluoromethyl)benzamido)picolinic acid] it is 650 nM.

As for `Cc1cc(Cl)ccc1Oc1ccc(C(F)(F)F)cc1C(=O)Nc1ccc(C(=O)O)nc1` [Compound 61, 5-(2-(4-chloro-2-methylphenoxy)-5-(trifluoromethyl)benzamido)picolinic acid], the 50% inhibitory concentration (IC50) was 145 nM. For `COc1ccccc1Oc1ccc(C(F)(F)F)cc1C(=O)Nc1ccc(C(=O)O)nc1` [Compound 62, 5-(2-(2-methoxyphenoxy)-5-(trifluoromethyl)benzamido)picolinic acid], half-maximal inhibition (IC50) required 370 nM.

The term IC50 denotes the concentration at which inhibition is half-maximal. Higher therefore signals lower potency.
